Reference: a melting point compilation (Tetko et al.; mined from patent text by program, amines drawn as free bases though some values may be those of a salt)

Work on `N#CCC(=NC#N)N1CCCC1` yielded a melting point of 45 °C.
Compound `CCOC(=O)CN(C(=O)CC)c1c(SC(F)(F)F)c(C)nn1-c1c(Cl)cc(C(F)(F)F)cc1Cl` has a melting point of 73 to 74 °C.
For `CC(C)NS(=O)(=O)c1ccc(S(N)(=O)=O)cc1`, the melting point was 166 to 168 °C.
For `Cc1ccc(OC(=O)N=C2NC(c3ccc(C)cc3)=NC2(C(F)(F)F)C(F)(F)F)cc1`, the melting point was 161 to 163 °C.
With `Cc1[nH]c([N+](=O)[O-])c(C)c1-c1ccnc(Nc2ccc(F)cc2)n1` the melting point was 166 to 170 °C.
Compound `Oc1cc(OCc2ccccc2)cc(OCc2ccccc2)c1` has a melting point of 107 to 109 °C.
`CC(C)/[N+]([O-])=C/c1ccc(O)cc1` gave a melting point of 217 to 218 °C.
For `Nc1cccc(-n2c(=O)c(Cc3cccnc3)nc3cccnc32)c1`, the melting point was 168 to 170 °C.
`COc1cccc2c1CC(NC(=O)C(C)C)CC2` (stereo not given) showed a melting point of 167 to 168 °C.
Work on `O=C1NC(=O)c2ccccc2/C1=C/Nc1ccc(CCN2CCCC2)cc1` yielded a melting point of 224 to 225 °C.
For `COc1cc(C(=O)N(C(C)C)C2CCCCC2)ccc1Cn1c(-c2ccccc2Cl)nc2ncccc21`, the melting point was 121 to 123 °C.
For `O=C1N(Cc2ccc(Cl)s2)c2ccccc2C12COc1ccc(OCc3ccccc3)cc12` (stereo not given), the melting point was 132 to 135 °C.
Compound `CN(N)c1ncnc2c1cnn2C` has a melting point of 213 to 215 °C.
Work on `O=C(O)Cn1c(=O)n(S(=O)(=O)c2ccc(Cl)cc2)c(=O)c2ccc(Cl)cc21` yielded a melting point of 194 to 195 °C.
Compound `COCCNc1nc(C2C(=O)Nc3ccc(Br)cc32)c2cn(CCOC)nc2n1` (stereo not given) has a melting point greater than 300 °C.
`CSc1nn2c(O)cc(C)nc2c1S(=O)(=O)c1ccc(C)cc1` gave a melting point greater than 230 °C.
With `CNS(=O)(=O)c1ccc(OC)c(C(=O)NCC2CCCN2CC2=CCCCC2)c1` (stereo not given) the melting point was 140 to 141 °C.
Work on `O=C(O)C1c2ccccc2Cc2ccccc21` yielded a melting point of 139 °C.
With `COc1c(Cl)ccc(-c2cc(N)c(Cl)c(C(=O)NOCc3ccccc3)n2)c1F` the melting point was 166 to 169 °C.
`N#CCC(=O)c1cccn1Cc1ccccc1` gave a melting point of 119 to 120 °C.
Compound `Cc1cc(-c2cc(C(F)(F)F)n3ncc(C(=O)Nc4cc(S(N)(=O)=O)sc4Cl)c3n2)ccc1C(F)(F)F` has a melting point of 283 °C.
Work on `NCCOc1ccc(O)cc1` yielded a melting point of 175 °C.
Compound `CC(=O)OCC1OC(Oc2cc(C)cc(O)c2C(C)=O)C(OC(C)=O)C(OC(C)=O)C1OC(C)=O` (stereo not given) has a melting point of 140 to 142 °C.
Work on `CCCCc1csc2ccc3[nH]c4c(c3c12)CN(C(C)C)CC4` yielded a melting point of 157 to 158 °C.
With `C[Si](C)(C)c1ccc(O)cc1` the melting point was 76 °C.
`CCCc1nc2c(N)nc(C)c(C)c2n1CCCC(=O)N1CCOCC1` gave a melting point of 164 to 165 °C.
Compound `CCOC(=O)C=CC=CCCC(C)C1CCC2C3CCC4CC(OC(C)=O)CCC4(C)C3CC(OC(C)=O)C12C` (stereo not given) has a melting point of 129 to 131 °C.
`O=C(OC1c2ccccc2C(=O)N1c1ccc2ccc(Cl)nc2n1)N1CCN(C(=O)C2CCCCC2)CC1` (stereo not given) showed a melting point of 240 °C.
For `CC(=O)Nc1c([N+](=O)[O-])cnn1-c1c(F)cc(C(F)(F)F)cc1Cl`, the melting point was 129 to 130 °C.
In the case of `CC(C(=O)O)c1ccc2c(c1)C(=O)c1ccc(Cl)cc1CS2` (stereo not given), the melting point is reported as 137 to 138 °C.
`O=c1[nH]c2ccccc2c2c1CNCC2` showed a melting point of 292 to 295 °C.
`COc1ccc(N=C(Cl)c2ccc(OC)cc2)cc1` gave a melting point of 116 °C.
For `CNC(=O)C[C@@H](NC(=O)OCc1ccccc1)C(C)C`, the melting point was 190 to 191 °C.
For `CC(C)OC(=O)c1cnn(-c2ccccn2)c1S(N)(=O)=O`, the melting point was 123 to 124 °C.
Work on `CNC(=O)c1cn(C)c2cc(Cl)ccc2c1=O` yielded a melting point of 260 to 263 °C.
In the case of `CCCCc1nn(Cc2ccc(C#N)cc2)c2ccccc2c1=O`, the melting point is reported as 180 °C.
Work on `Cc1nnc2n1-c1sc(CCC(=O)N3CCCCC3)cc1C(c1ccccc1Cl)=NC2C` (stereo not given) yielded a melting point of 157 to 160 °C.
Compound `O=C(c1ccccc1)c1oc2ccccc2c1-c1ccc(-c2ccc(OC(Cc3ccccc3)C(=O)O)cc2)cc1` (stereo not given) has a melting point of 159 to 161 °C.
Work on `CCOC(=O)C1CCN(C(=O)c2ccc(/C=C/C(=O)O)cc2)CC1` yielded a melting point of 165 °C.
For `CC1(C)CC(=NO)c2cc(-c3ccc(Br)cc3)ccc2O1`, the melting point was 166 to 170 °C.
